According to patent US9486440B2, “Uses of indole-ketones or indolidones as neuro-protective drugs” (UNIVERSITY OF MACAU, priority 2011, dated 2016):
Entries after “also recorded” stand apart in the source; their conditions may differ.

What was measured:
nNOS protein expression = test: Western blot of nNOS protein in CGNs after MPP+; format: cell-based, rat; conditions: 20 μM, 35 μM MPP+
Procedure: (§1) Briefly, neurons were harvested in a cell lysis buffer. Protein was separated on SDS-polyacrylamide gel and transferred onto polyvinyldifluoride membranes. After membrane blocking, proteins were detected using primary antibodies. After incubation at 4° C. overnight, signals were obtained after binding to chemiluminescent secondary antibodies. Blots were developed using an ECL plus kit (Amersham Bioscience, Aylesbury, UK) and exposed to Kodak autoradiographic films. All data were from three independent experiments and were expressed as the ratio to optical density (OD) values of the corresponding controls for statistical analyses.

iNOS protein expression = test: Western blot of iNOS protein in CGNs after MPP+; format: cell-based, rat; conditions: 20 μM, 35 μM MPP+
Procedure: as §1

th gene = test: MPTP zebrafish, th gene expression by real-time PCR; format: in vivo; conditions: 200 μM MPTP, 48 hours
Procedure: Wild-type zebrafish (AB strain) and Tg (fli-1:EGFP) transgenic zebrafish were maintained as described in the Zebrafish Handbook (Westerfield, 1993). Zebrafish embryos were generated by natural pair-wise mating (3-12 months old) and raised at 28.5° C. in embryo medium (13.7 mM NaCl, 540 μM KCl, pH 7.4, 25 μM Na2HPO4, 44 μM KH2PO4, 300 μM CaCl2, 100 μM MgSO4, 420 μM NaHCO3, pH 7.4). […] An equal concentration of DMSO in embryo medium was used as vehicle control in each experiment.
Healthy zebrafish embryos were picked out and […] manually at 1 day post fertilization (dpf) and distributed into a 12-well plate with 20 fish embryos or a 6-well microplate with 30 fish embryos in each well. […] Thus subsequent studies were done with 200 μM MPTP for whole-mount immunostaining and gene expression experiments.
Total RNA was extracted from 30 zebrafish larvae of each treatment group using the RNeasy Mini Kit (Qiagen, USA) according to the manufacturer's instructions. […] The expression of the mRNA was normalized to the amount of bactin1 using the relative quantification method described by the manufacturer. […]

recombinant human MAO-B = target: T1, recombinant human MAO-B (Homo sapiens, UniProt P27338); test: MAO-Glo MAO-B inhibition assay; format: biochemical
T1 construct: purchased Sigma-Aldrich
T1 sequence (P27338 whole entry): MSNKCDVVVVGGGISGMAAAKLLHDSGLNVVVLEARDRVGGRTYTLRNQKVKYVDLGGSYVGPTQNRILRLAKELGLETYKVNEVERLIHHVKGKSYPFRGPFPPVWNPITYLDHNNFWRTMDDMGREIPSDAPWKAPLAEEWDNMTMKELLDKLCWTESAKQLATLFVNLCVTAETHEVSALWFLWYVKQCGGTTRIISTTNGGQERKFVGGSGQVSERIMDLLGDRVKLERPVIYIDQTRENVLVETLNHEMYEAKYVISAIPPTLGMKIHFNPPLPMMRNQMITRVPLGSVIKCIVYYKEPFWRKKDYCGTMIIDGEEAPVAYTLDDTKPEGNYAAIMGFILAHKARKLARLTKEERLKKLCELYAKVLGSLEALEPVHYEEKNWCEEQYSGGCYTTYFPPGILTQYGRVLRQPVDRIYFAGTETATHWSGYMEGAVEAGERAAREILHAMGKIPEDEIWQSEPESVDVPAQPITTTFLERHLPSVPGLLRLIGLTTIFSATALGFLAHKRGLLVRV
Procedure: The MAO-B inhibition activity of SU4312 was determined by MAO-Glo™ Assay kit (Promega Inc., USA). The recombinant human MAO-B enzymes and selegiline used in this study were purchased from Sigma-Aldrich. Concentrations of SU4312 tested were 0.01, 0.03, 0.1, 0.3, 1.0 and 10 μM. Selegiline, a known MAO-B inhibitor, was used as positive control at 0.001, 0.01, 0.1, 1, 10 μM. Briefly, SU4312 and selegiline were incubated in 96-well opaque white plates with MAO substrate and rhMAO-B (0.25 mg protein/mL final concentration). Reactions were started by addition of rhMAO-B. Samples were incubated for 1 hour at room temperature. Reactions were terminated by addition of luciferin detection reagent, and samples were incubated an additional 20 minutes to allow development of luciferase- and esterase-dependent luminescence. Relative luminescence was determined with a plate luminometer and was corrected for background using no-MAO-B controls. Results are presented as percent of vehicle (total MAO-B activity).

[1] = system: retinal photoreceptors or ganglion cells; conditions: 3 mg of SU4312 every 5 days for 12 weeks; cited from earlier work
nNOS = nNOS (Homo sapiens, UniProt P29475); test: In vitro NOS activity assay, nNOS; format: biochemical; design: purchased Alexis Biochemicals (Lausen, Switzerland); conditions: for inhibition of recombinant human nNOS: PTK787/ZK222584 up to 1 mM
Procedure: (§2) In the in vitro NOS activity assay (Li et al., 2007), purified recombinant human nNOS, endothelial NOS (eNOS), and inducible NOS (iNOS) were bought from Alexis Biochemicals (Lausen, Switzerland). NOS activity was determined by monitoring the conversion of L-[3H]arginine to [3H]citrulline following the instructions provided in the kit (Calbiochem, USA). The reaction mixture contained a final volume of 40 μl with 25 mM Tris-Cl at pH 7.4, 3 μM tetrahydrobiopterin, 1 μM FAD, 1 μM FMN, 1 mM NADPH, 0.6 mM CaCl2, 0.1 μM calmodulin, 2.5 μg of pure NOS enzyme, 5 μl L-[3H]arginine (Perkin Elmer, Waltham, Mass., USA), and different concentrations of the tested reagents. The reaction mixture was incubated at 22° C. for 45 min. The reaction was quenched by adding 400 μl of stopping buffer (50 mM HEPES, pH 5.5, and 5 mM EDTA) for nNOS and eNOS reactions or by heating reactive tubes for iNOS. Unreacted L-[3H]arginine was then trapped by 100 μl of equilibrated resin provided in a spin cup followed by centrifugation for 30 s at 13,200 rpm. The filtrate was quantified by liquid scintillation counting.

[2] = target: T2, recombinant human inducible NOS (iNOS) (Homo sapiens, UniProt P35228); test: In vitro NOS activity assay, iNOS; format: biochemical; conditions: up to 1 mM
T2 construct: purchased Alexis Biochemicals (Lausen, Switzerland)
Procedure: as §2

CGNs = test: Low potassium-induced cell death in CGNs, MTT assay; format: cell-based; conditions: 5 mM KCl BME medium, 24 hours; sunitinib 0.1-2 μM
Procedure: Cell viability was measured by MTT assay at 24 hours after low potassium challenge. […] After 24 hours of low potassium challenge, CGNs were assayed with an FDA/PI double staining. […] After 24 hours of low potassium challenge, CGNs were assayed with Hoechst staining. The number of apoptotic nuclei with condensed chromatin were counted from representative Hoechst staining photomicrographs and represented as a percentage of the total number of nuclei counted. […] Intracellular NO level was measured using DAF-FM diacetate as a probe at 4 hour after low potassium challenge. Data, expressed as percentage of control (CGNs were cultured in high potassium medium), were the mean±SEM of three separate experiments; *p<0.05 and **p<0.01 versus low potassium group in (A) and (D) or versus control in (C); ^##p<0.01 versus low potassium group in (C) (Turkey's test).
It was previously reported that low potassium could induce typical apoptosis in cerebellar granule neurons (CGNs) (Fu et al., 2008). […] Cell viability was measured with an MTT assay 24 hours after the low potassium treatment.

| Structure (SMILES) | MPP+-increased expression of nNOS protein (nNOS protein expression) | MPP+-elevated expression of iNOS protein (iNOS protein expression) | th gene expression down-regulated by MPTP (th gene) | MAO-B activity in vitro (recombinant human MAO-B; figure legends) | IC50 (recombinant human MAO-B; rhMAO-B, 1 hour at room temperature) | damage to retinal photoreceptors or ganglion cells [1] | Ki (nNOS; 10 and 20 μM SU4312, 5 to 40 μM L-[3H]arginine, Lineweaver-Burk, read-out: Ki value of nNOS inhibition) | mode of nNOS inhibition (nNOS; Lineweaver-Burk plots) | inhibition of recombinant human nNOS (nNOS) | inhibition of recombinant human iNOS [2] | low potassium-induced cell death (MTT) (CGNs) |
| --- | --- | --- | --- | --- | --- | --- | --- | --- | --- | --- | --- |
| Cc1cc(C)c(/C=C2\C(=O)Nc3ccccc32)[nH]1 [SU5416, (3Z)-3-[(3,5-dimethyl-1H-pyrrol-2-yl)methylidene]-1,3-dihydro-2H-indol-2-one] | reversed the increased expression of nNOS by MPP^+ | could not affect the elevated expression of iNOS by MPP^+ | – | – | – | – | – | – | – | – | – |
| CN(C)c1ccc(C=C2C(=O)Nc3ccccc32)cc1 [SU4312, 3-[4-(dimethylamino)benzylidenyl]indolin-2-one] | – | – | significantly alleviated the loss of DA neurons and decrease of th gene expression in a concentration-dependent manner | inhibited monoamine oxidase-B (MAO-B) activity in a concentration dependent manner | ~0.2 µM | did not damage retinal photoreceptors or ganglion cells | 12.7 µM | inhibited nNOS in a non-competitive manner; also recorded: did not alter Km but increased the appeared 1/Vmax | directly and selectively inhibit recombinant human nNOS relative to iNOS | – | – |
| Clc1ccc(Nc2nnc(Cc3ccncc3)c3ccccc23)cc1 [PTK787/ZK222584] | – | – | – | – | – | – | – | – | did not inhibit any of the isoforms even at 1 mM | did not inhibit any of the isoforms even at 1 mM | at 3 and 10 μM both failed to block neuronal loss in vitro |
